Measurements taken from patent US20060223884A1, “Compounds and compositions for use in the prevention and treatment of obesity and related syndromes” (priority 2005, published 2006).
Like-named read-outs stand apart in the source and are kept apart here.

What was measured:
[1] = format: in vivo; details: ob/ob mice
Excerpt: The objective of this study was to evaluate the effect of chronic administration of 4-hydroxyisoleucine (4-OH, compound 14a) on food consumption and body weight gain in a genetic model of obesity, the ob/ob mouse. Body weight gain and food consumption were monitored for 1 week prior to the commencement of treatment, and then for the 56 days of treatment.
A total of 16 animals were used in the study. The animals were distributed into 2 groups (1 treated, 1 control group, all on standard chow). Each group was composed of 8 animals. The mice were randomized according to body weight values.
For the eight weeks of treatment, the test agent was dissolved in reverse osmosis water. 4-hydroxyisoleucine was aliquoted and kept at 4° C. Control animals received reverse osmosis water twice daily (group 1). Mice from group 2 were treated twice daily with 4-OH at 100 mg/kg. All groups were treated by oral gavage. Treatment commenced on Day 0 and ended on Day 56 (FIGS. 16A and 16B). Food consumption was measured daily and averaged on a weekly basis beginning one week before the start of treatment as shown in FIG. 16B.

[2] = Weight gain and epididymal fat of DIO-C57Bl/6 mice, 4-hydroxyisoleucine and Exendin-4 alone or in combination (Example 5); format: in vivo, C57BI/6 mice; details: s.c., 21 days
Protocol: Glycemic response was monitored by an Oral Glucose Tolerance Test (OGTT) performed on days 0, 7, 14, and 21 of treatment.
A total of 56 animals were used in the study. The animals were distributed into 7 groups (5 treated, 1 normal diet control, and 1 high fat diet control group). Each group was composed of 8 animals. […] For the three weeks of treatment, the test agents were dissolved in sterile saline for injection (USP). 4-Hydroxyisoleucine was kept at 4° C. (administration to groups 3, 4, and 7) while a frozen aliquot of Exendin-4 was thawed each dosing day for administration to groups 5, 6, and 7. Control animals received sterile saline, twice daily (groups 1 and 2). […] Animals from groups 5 and 6 received sterile saline as the AM treatment, while the PM treatment consisted of 0.05 and 0.01 mg/kg of Exendin-4, respectively. For Group 7, the AM treatment consisted of 50 mg/kg 4-OH only, while the PM treatment consisted of 0.01 mg/kg of Exendin-4+50 mg/kg of 4-OH. All groups were treated by subcutaneous injection.

[3] = Body weight of DIO mice, 4-hydroxyisoleucine and Rimonabant alone and in combination (Example 7); format: in vivo, C57BU6 mice; details: oral
Protocol: C57BU6 mice were received at 7-8 weeks of age and fed a high fat diet (60% of calories from fat) for 8 weeks. Seven days prior to treatment, animals were randomized based on their body weight and fasted glycemia values into control and treated groups (n=8). The animals were treated by oral gavage twice daily with 4-OH (50 mg/kg of body weight; group 2), once daily in the afternoon with Rimonabant (0.1 mg/kg; group 3), and a combination of the two treatments (4-OH 50 mg/kg twice daily +Rimonabant 0.1 mg/kg once daily; group 4). The control group (group 1) received vehicle alone twice daily. After 3 weeks of treatment (day 22), the doses were increased as follows: 4-OH 100 mg/kg twice daily (group 2), Rimonabant 1 mg/kg once daily (group 3), and the combination (4-OH 100 mg/kg twice daily+Rimonabant 1 mg/kg once daily; group 4). The animals were treated for 1 week with these higher doses. Body weight of the mice was recorded every day for all groups from Day 6 to Day 28.

[4] = Prevention of weight gain in Wistar rats fed a high fat, high sucrose diet (Example 10); format: in vivo; details: Wistar rats on HFHS diet, 100 mg/kg twice daily oral
Excerpt: The aim of this study was to evaluate the effect of chronic administration of 4-hydroxyisoleucine (4-OH, Compound 14a) on food consumption, tissue weight, and body weight gain of normal Wistar rats fed a high fat, high sucrose diet (HFHS).
The animals were acclimated for 1 week and fed standard chow prior to the commencement of treatment, then for the 28 days of the treatment the animals were fed a high fat, high sucrose diet (HFHS). A total of 30 animals were used in the study. The animals were distributed into 3 groups each composed of 10 animals: 1 group fed HFHS with treatment, 1 untreated control group fed standard chow, and 1 untreated group fed HFHS. Animals were housed separately and food consumption was monitored daily.
For the four weeks of treatment, the test compounds were dissolved in reverse osmosis water. 4-hydroxyisoleucine (4-OH) was aliquoted and kept at 4° C. Treated animals received twice daily oral administration of 4-OH at 100 mg/kg per dose. Control animals received water twice daily.

[5] = Reversal of weight gain in obese wistar rats on HFHS diet (Example 11); format: in vivo; details: 100 mg/kg twice daily oral
Excerpt: The aim of this study was to evaluate the effect of chronic administration of 4-hydroxyisoleucine (4-OH, Compound 14a) on food consumption, tissue weight, and body weight gain of wistar obese rats.
A total of 30 animals were used in the study. The animals were acclimated for 1 week and fed standard chow. The animals were randomized into 3 groups of 10 animals each. Two groups were fed a high fat, high sucrose diet (HFHS), and 1 untreated control group was fed standard chow over a 28 day period. Animals were housed separately and food consumption was monitored daily.
In the following period of 28 days, the feeding regimen remained the same for the 3 groups; however, 1 group fed HFHS was treated with twice daily oral administration of 4-OH at 100 mg/kg per dose. For the 28 days of treatment, 4-OH was dissolved in reverse osmosis water, aliquoted, and kept at 4° C. Untreated animals received water twice daily.

[6] = cited from earlier work
[7] = obese wistar rats (28 days HFHS before treatment)

SMILES: C[C@@H]([C@H](C)O)[C@H](N)C(=O)O [compound 14a, (2S,3R,4S)-4-Hydroxyisoleucine]
- weight gain during the course of treatment ([1]; 100 mg/kg twice daily oral): moderation of weight gain
- weight gain as compared to the control group ([1]; 100 mg/kg twice daily oral, Day 21 to Day 56): significantly reduced
- tolerability of treatment ([1]; 100 mg/kg twice daily, oral gavage, 56 days): well tolerated
- food consumption ([1]; first three weeks of treatment but not later on): slight decrease in food consumption
- body weight gain ([2]; 4-OH 50 mg/kg twice daily, Exendin-4 0.01 mg/kg (PM), alone or in combination): decrease in body weight gain
- weight of epididymal fat ([2]; 4-OH 100 mg/kg, Exendin-4 0.01 mg/kg, combination 4-OH 50 mg/kg + Exendin-4 0.01 mg/kg): reduction of the weight of epididymal fat
- body weight gain after 21 days (low dosage treatment) ([3]; 4-OH 50 mg/kg twice daily, Rimonabant 0.1 mg/kg once daily, alone or in combination): slight reduction of body weight gain
- body weight after dose increase (day 22 to 28) ([3]; 4-OH 100 mg/kg twice daily, Rimonabant 1 mg/kg once daily, alone or in combination (combination compared to each compound separately)): immediately reduced the body weight
- epididymal and peri-renal adipose tissue ([4]; 28 days): reduction of epididymal and peri-renal adipose tissue
- tolerability of treatment ([4]; 28 days): well tolerated
- weight gain ([4]; 28 days): Moderation of weight gain
- muscle, brown fat, and organ weight ([4]; 28 days (data not shown)): not affected
- food consumption ([4]; 28 days, could not account for the differences in weight gain): reduction in food consumption
- epididymal and peri-renal adipose tissue [5, 7]: reduction of epididymal and pen-renal adipose tissue
- muscle, brown fat, and organ weight [5, 7]: not affected
- tolerability of treatment [5, 7]: well tolerated
- weight gain [5, 7]: Moderation of weight gain
- food consumption ([5]; obese wistar rats, 28 days, could not account for the differences in adiposity): reduction in food consumption
- insulinotropic and insulin sensitizing activities ([6]; Broca et al. 1999, 2000, 2004, WO 97/32577, WO 01/15689): insulinotropic and insulin sensitizing activities
- antidyslipidemic activities ([6]; Narender et al. 2006): antidyslipidemic activities
